The test system of experiment [1] is bronchodilating activity in presence of a β-adrenergic blocking agent. Nature of the experiment: Inhibition of the bronchodilating activity by a β-adrenergic blocking agent.
Experiment [2] relates to air-way resistance in guinea pigs. As to the kind of experiment: Bronchodilating activity: inhibition of histamine-induced increase in air-way resistance (variant Konzett-Rossler method). Type of experiment: in vivo, guinea pig. To be noted: Cavia porcellus; intravenous (method; head prints i.r.); histamine 2 - 3 μg/kg i.v.; parentheses = 95% confidence limit; read-out: 50% Inhibition Dose (ID50) of increase of air-way resistance in guinea pigs. As to the method:
The test compounds were administered through intravenous injection to a guinea pig (body weight: 400 - 600 g) anesthetized by administration of sodium pentobarbital, and 2 - 3 μg/kg of histamine was administered through intravenous injection. Inhibitory ratio of increase in air-way resistance was determined by the variant method of Konzett-Rossler method [Archiv fur Experimentelle Pathologie und Pharmakologie, vol. 195, 71 (1940)].

For experiment [3], the system named is gastric secretion (stomach of a male rat). Nature of the experiment: Inhibition of gastric secretion (tetragastrin-stimulated, perfused stomach of anesthetized rat; dose raising perfusate pH by 1.0). To be noted: intravenous administration for 30 minutes; urethane-anesthetized rat; tetragastrine 10 μg/kg/hr. Type of experiment: in vivo, Donryu strain). Here is the method:
The method employed was essentially same as described by M. N. Ghosh and H. O. Schild in British Journal of Pharmacology and Chemotherapy, vol. 13, 54-61 (1958). Through the stomach of a male rat (Donryu strain) anesthetized by administration of urethane was perfused a physiological saline solution containing a small amount of sodium hydroxide at a rate of 1 ml/min. Then 10 μg/kg/hr of a gastric secretion stimulating agent, tetragastrine, was continuously injected into the vein of said rat until pH of the outflowing perfusate reached approximately 3 and said value remained. Thereupon, a certain amount of the test compounds was administered at a certain rate into the vein for 30 minutes, and pH of the outflowing perfusate was measured. The measurement was repeated with variation of the administering amount.

Each structure is given as a SMILES string.

Turning to `CC(C)(C)NCC(O)c1ccc(O)c(CO)c1` (stereo not shown) [Salbutanol], in experiment [1], the “inhibition of bronchodilating activity by a β-adrenergic blocking agent (in words)” value was “inhibits”.

As for `CCCCC[C@H](O)/C=C/[C@H]1[C@H](O)CC(=O)[C@@H]1C/C=C\CCCC(=O)O` [PGE2], in experiment [2], the ED50 came to 0.21 µg/kg.

For the compound `CC(C)=CCCC(C)C[C@H](O)/C=C/[C@H]1[C@H](O)CC(=O)[C@@H]1C/C=C\CCCC(=O)O` (relative stereo) [Compound B, 9-oxo-11α, 15α-dihydroxy-17β-methyl-20-isopropylideneprost-5-(cis), 13(trans)-dienoic acid], the “Dose needed to increase the pH of the outflowing perfusate by 1.0” value (from here on “Dose needed to increase the pH”) in experiment [3] is recorded as 0.070 mg/kg/hr.

With `CC(C)=CCCC(C)CC(O)/C=C/C1C(O)CC(=O)C1CCCCCCC(=O)O` (stereo not drawn) [Compound A, 9-oxo-11α,15α-dihydroxy-17β-methyl-20-isopropylideneprost-13(trans)-enoic acid], in experiment [3], the “Dose needed to increase the pH” value was found to be 0.074 mg/kg/hr.

`CC(C)NCC(O)c1ccc(O)c(O)c1` (stereo not shown) [Isoproterenol]: in experiment [1], the “inhibition of bronchodilating activity by a β-adrenergic blocking agent (in words)” value is listed as “inhibits”.

For `CCCCC[C@H](O)/C=C/[C@H]1[C@H](O)CC(=O)[C@@H]1CCCCCCC(=O)O` [PGE1, prostaglandin E1], in experiment [3], the “Dose needed to increase the pH” value is listed as 0.086 mg/kg/hr. The ED50 in experiment [2] was 0.14 µg/kg.

The values above are taken from US4064351A, “9-OXO-15 .xi.-HYDROXY-20-ALKYLIDENEPROST-13(TRANS)-ENOIC ACID DERIVATIVES” (Sankyo Company Limited, priority 1974, dated 1977).
